The numbers were not newly measured in US20080279776A1, “Photosensitizers and MRI Enhancers” (Photo Diagnostic Devices (PDD) Limited, priority 2005, published 2008), which cites them from elsewhere.

The conditions of the data set: readings taken as a prototype.

In the case of “18-carboxy-20-(carboxymethyl)-8-ethenyl-13-ethyl-2,3-dihydro-3,7,12,17-tetramethyl-21H,23H-porphine-2-propanoic acid [Chlorine-e6]”, the LD10 was 119 mg/kg weight and the LD50 was 160 mg/kg weight.
